Tested on: 5α-reductase
Assay: 5α-reductase activity of fibroblasts derived from human follicle dermal papillae ([C14]-testosterone metabolism to dihydrotestosterone)
Assay type: cell-based
Protocol: The study is performed on human cells derived from donor follicle dermal papillae. This model is attractive since dermal papillae have the 5α2 isoform as in prostate tissue. The cells are seeded in 24-well plates and cultured for 24 hours in DMEM culture medium supplemented with L-glutamine (2 mM), penicillin (50 U/ml), streptomycin (50 μg/ml) and fatal calf serum (10%) under standard culture conditions (37° C. and 5% CO2). The culture medium is then replaced by a DMEM analytical medium supplemented with L-glutamine (2 mM), penicillin (50 U/ml), streptomycin (50 μg/ml) and fatal calf serum (1%). This analytical medium may contain or may not contain (control conditions) the products to be tested and a compound used as reference, finasteride (10 μM), for 24 h of pre-incubation. The cells were then treated with an analytical medium containing [C^14]-testosterone and containing or not containing (control conditions) the test or reference products, and the cells were incubated for 24 h under these conditions. After incubation, supernatants were collected for testosterone metabolism analysis. All experiments were carried out three times. The steroid molecules were extracted from the supernatants with a chloroform/methanol mixture. The organic phase was collected and the different molecular species (testosterone metabolites) were separated by thin-layer chromatography using a solvent system containing dichloromethane, ethylacetate and methanol. An autoradiography was performed on the chromatography and the transformed testosterone was estimated by densitometric analysis.
Thus, the metabolism of testosterone to dihydrotestosterone reflects the 5α-reductase activity and is evaluated by the dihydrotestosterone/testosterone ratio.

Structure (SMILES) | 5α-reductase inhibition, result in words | testosterone metabolism/dihydrotestosterone production (5α-reductase activity), change versus control = 100 (10 μM, n = 3) [%] | inhibition of 5α-reductase (40 μg/ml) [%]
CC(C)(C)NC(=O)[C@H]1CC[C@H]2[C@@H]3CC[C@H]4NC(=O)C=C[C@]4(C)[C@H]3CC[C@]12C [Finasteride, finasteride] | strong inhibition | −77 | 
CCCCCCCCCCCC(=O)OCC(O)CO (stereo not drawn) [glyceryl laurate] |  |  | 19

Reference: US10925915B2, “Use of a Copaifera extract to combat alopecia and seborrhea” (PIERRE FABRE DERMO-COSMETIQUE, priority 2017, dated 2021)
